Results as given in patent US8455546B2, “Medicament having promoting action on hepatocyte proliferation” (Josai University Educational Corporation, priority 2007, dated 2013).
Where two headings read alike, the source gives them in different places.

How the values were obtained:
[1] = test system: primarily cultured rat hepatocytes; test: Influence on cell density-dependent proliferation of primarily cultured rat hepatocytes; format: cell-based; settings: cell densities 1-10×10^4 cells/cm^2; NIK-333 10^−9, trans 10^−7, GGP 10^−6 mol/L; four hours; FIG. 2
Text: Hepatocytes isolated by the same method as that of Example 1 were inoculated at cell densities of 1, 2, 3.3, 5, 7, and 10×10^4 cells/cm^2. NIK-333 (10^−9 mol/L), trans (10^−7 mol/L), cis (10^−6 mol/L), GG (10^−7 mol/L), and GGP (10^−6 mol/L) were each added to the hepatocytes pre-cultured in the same manner as that of Example 1.

[2] = test system: primarily cultured rat hepatocytes; test: Effect of promoting proliferation of primarily cultured rat hepatocytes (number of nuclei); settings: FIG. 1; for effect of promoting proliferation of primarily cultured rat hepatocytes (number of nuclei): 10^−11 to 10^−7 (and 10^−8 as printed) mol/L, four hours after addition, 3.3×10^4 cells/cm^2, vs solvent control
Procedure: (§1) Wistar male rats (weight: 200 to 205 g) were used, and hepatocytes were isolated by the in situ collagenase perfusion technique according to the method of Seglen et al. (Methods. Cell Biol., 13, pp. 29-83, 1975). The isolated hepatocytes were suspended in the Williams' medium E (containing 0.1 μg/mL aprotinin, 100 U/mL of penicillin G, 0.1 mg/mL of streptomycin, and 0.1 nmol/L of dexamethasone) containing 5% bovine neonate serum 3 times for washing, and then inoculated on a collagen coated culture dish (35 mm Φ) at a cell density of 3.3×10^4 cells/cm^2. The cells were adhered to the culture dish by culturing them at 37° C. for 3 hours in the presence of 5% CO2 to prepare a primarily cultured hepatocyte cell line. Survival rate of the isolated hepatocytes was obtained by the trypan blue exclusion method, and those showing a survival rate not lower than 93% were used for the following experiments.
(§2) Four hours after the addition of the agents, number of nuclei was measured as follows. The hepatocytes were washed with PBS, and then added with 0.25 mL of a 0.1 mol/L citric acid solution containing 0.1% Triton X-100. The cells were incubated at 37° C. for 30 minutes to solubilize the cell membranes and thereby obtain naked nuclei. The same volume of a PBS solution containing 0.3% trypan blue was further added, and number of the stained nuclei was measured with a hemacytometer.

[3] = test system: rat partially hepatectomized model; settings: rat partially hepatectomized model (Non-patent document 9); cited from earlier work
[4] = test system: cell lines derived from human hepatoma (HuH-7, JHH-7, HLF, Hep G2); test: Influence on proliferation of cell lines derived from human hepatoma (WST-1 live cell count); format: cell-based; settings: 10^−11 to 10^−7 mol/L, cultured overnight, FIG. 3
Procedure: The cells were inoculated on a 96-well plate at a cell density of 1×10^4 cells/mL, and cultured overnight at 37° C. in the presence of 5% CO2. […] The cells were cultured overnight at 37° C. in the presence of 5% CO2, and live cell count was measured. The live cell count was measured by using Cell Counting Kit (Wako Pure Chemical Industries). […] Absorbance was measured for each well at a measurement wavelength of 450 nm and a reference wavelength of 655 nm using a microplate reader.

[5] = test system: 70% partially hepatectomized rat (PH rat); test: Liver regeneration in 70% partially hepatectomized rat (PH rat); format: in vivo; settings: 0.4 mg/kg/day p.o.
Procedure: Hepatocyte proliferation promoting effect of NIK-333 was examined by using a 70% partially hepatectomized rat (partial hepatectomy: PH rat) as an in vivo experiment system.
Wistar male rats (weight: 130 to 170 g) were subjected to 70% partial hepatectomy according to the method of Higgins G. M. et al. (Arch. Pathol., 12, pp. 186-202, 1931) to prepare PH rats. NIK-333 (solvent was soybean oil, 0.4 mg/kg/day) was orally administered to these PH rats once per day, the administration was repeated and continued for 1 to 14 days, and reaction was observed over time. The model animals fed for 1 to 14 days after the hepatectomy were subjected to abdominal section under diethyl ether anesthesia, and the remaining livers were extracted. The remaining livers were separated into normal hepatic tissues and necrotizing hepatic tissues (liver tissues which were not excisable by the partial hepatectomy and remained), and weight of each was measured (wet weight). The examination was performed for three animals for each group, and the results are indicated as average±standard error. Student t-test was performed between a solvent administered group (soybean oil, 4 mL/kg, p.o.) as a control group and the NIK-333 administered group. The significance level of the test was set at 5% and 1% on both sides.

hepatoma = settings: long-term administration over one year (Non-patent document 6); cited from earlier work
[6] = test system: primarily cultured mouse hepatocytes; settings: cited from earlier work
[7] = test system: mouse liver carcinogenic model; settings: reported; cited from earlier work
[8] = test system: primarily cultured rat hepatocytes
Procedure: as §1, §2

Row | SMILES | cell proliferation promoting action with increasing cell density [1] | effect of promoting proliferation of primarily cultured rat hepatocytes (number of nuclei) [2] | DNA synthesis of regenerated liver [3] | proliferation promotion action for human hepatoma cell strains (live cell count) [4] | relative strength of the proliferation promoting effect among the tested agents ([2]; comparison of NIK-333, trans, cis, GG, GGP) | recovery of liver weight compared with the control group ([5]; 1 to 14 days) | hyperproliferation exceeding the value of the Sham group ([5]; 14th day after PH) | increase rate of liver weight ([5]; 3 days after PH) | liver weight ([5]; 3 days after PH, g liver weight/100 g body weight) | recurrence of hepatoma after radical cure (hepatoma) | effect on proliferation of primarily cultured mouse hepatocytes ([6]; at a concentration inducing apoptosis of hepatoma cells (Non-patent documents 7 and 8)) | oncogenesis in mouse liver carcinogenic model [7] | effect of promoting proliferation of primarily cultured rat hepatocytes (number of nuclei) [8] | proliferation of mouse hepatocytes ([6]; reported, no concentration given)
1 | CC(C)=CCC/C(C)=C/CC/C(C)=C/CC/C(C)=C/COP(=O)(O)OP(=O)(O)O.N.N.N [GGP, geranylgeranyl pyrophosphate ammonium salt, reference compound] | decreased with the increase of the cell density | significant effect of promoting proliferation | – | – | – | – | – | – | – | – | – | – | – | –
2 | CC(C)=CCC/C(C)=C/CC/C(C)=C/C=C/C(C)=C/C(=O)O [NIK-333, (2E,4E,6E,10E)-3,7,11,15-tetramethyl-2,4,6,10,14-hexadecapentaenoic acid] | decreased with the increase of the cell density | significant effect of promoting proliferation | delays DNA synthesis | no proliferation promotion action | strongest effect | earlier recovery of liver weight | not observed | 85% | 3.0 g LW/BW | significantly suppressed | does not affect proliferation | – | – | –
3 | CC1=C(/C=C/C(C)=C/C=C/C(C)=C/C(=O)O)C(C)(C)CCC1 [trans, all-trans-retinoic acid] | gave the cell proliferation promoting action even when the cell density was increased | – | – | – | – | – | – | – | – | – | – | promote oncogenesis | significant effect of promoting proliferation | induce the proliferation of mouse hepatocytes
